This note sets out measurements from patent publication US12102706B2, “Peptide composition and respective uses” (Universidade do Minho, priority 2013, dated 2024).

Assay [1] has as its system keratin. The assay can be described thus: Binding of Alexa Fluor 647-marked keratin to peptides attached to glass, microarray scanner intensity (Example 4). Set-up: species or system human. Particulars: peptide 15 fmol/mm2 on glass; keratin 1 μg/mL, 2 hours at 37° C.; three replicas. On the procedure: In order to assess the interactions between the keratin and some peptides, a keratin solution was prepared. This procedure was performed by immersing African hair, acquired from the International Hair Importers and Products, Inc. (New York), in a solution containing 8 M urea, 0.2 M sodium dodecyl sulfate and 0.5 M sodium bisulfate. The mixture was heated to 50° C. for 24 h in a shaker bath. The solution was dialyzed for several days against double-distilled water. The keratin solution was then concentrated using AMICON with a 3 kDa cut-off.
The reaction was incubated for 1 h30 min at room temperature and in the dark.
The keratin was then diluted to 1 μg/mL in blocking buffer (3% BSA in tris-buffered saline (TBS) with 0.05% Tween 20).
After incubation, the glasses were rinsed in successive washing solutions: TBS+0.1% Tween 20 and blocking buffer with 3% BSA in TBS+0.1% Tween 20, for 3 minutes in each solution.
The imaging of the glasses was performed in Agilent G2565CA Microarray Scanner System. Three replicas of the each peptide incubation were performed and analyzed.

Assay [2] in a line: Mechanical test (Young modulus) of bleached human hair treated with serum or mask, with and without peptide (Example 1). Particulars: formulations containing the peptide vs without peptide. The method, then: The tests were performed with in human hair after 8 treatments of bleaching, at 50° C. in 0.1 M Na2CO3/NaHCO3 buffer, at pH=9, 10% H2O2, for 1 hour.
Each of the formulations was tested with and without the peptide sequence ID NO:5, which contains in the sequence 15% of cysteine.
The hair mask was applied to the hair after 8 bleaching treatments, being left to act for 15 minutes, mimicking the procedure indicated in commercial masks. Posteriorly, the hair was washed. The serum was applied to the hair after 8 bleaching treatments, being left to act for 1 hour at 37° C. Posteriorly, the hair was not washed, as in typical commercial procedures the serum should be applied in dry hair. The hair was also tested after 5 applications.
After the treatment, mechanical tests were performed, using a cell with 2.5 N maximum load and a deformation rate of 1.5 mm/min. Each hair was individually mounted in the tensile jig by means of a paper template with a fixed gauge length of 20 mm.

Assay [3] can be described thus: Mechanical resistance test (Young modulus) of bleached human hair after direct application of peptide (Example 2). Particulars: peptide treatment after bleaching. On the procedure: The hair was supplied from International Hair Importers and Products, Inc. (New York). Hair fibers were pre-treated by bleaching. The formulation was tested in different hair types: • virgin hair washed, with the cuticle intact and absence of chemical damages; • hair after 8 bleaching treatments, at 50° C. in 0.1 M Na2CO3/NaHCO3 buffer, at pH=9, 10% H2O2, for 1 hour.
The incorporation of the peptides was performed by direct application in the hair surface. The mechanical resistance tests were performed after the treatment of the hair with the peptide.
The measurements of mechanical resistance were performed using a cell with 2.5 N maximum load and a deformation rate of 1.5 mm/min. Each hair was individually mounted in the tensile jig by means of a paper template with a fixed gauge length of 20 mm.

Assay [4] is described as follows: Mechanical tests (Young modulus, maximum load, stretching) of relaxed (reduced) human hair after peptide treatment (Example 3). On the procedure:
The formulation was tested in different hair types: • virgin hair washed, with the cuticle intact and absence of chemical damages; • hair after reduction treatment, at 37° C. in phosphate buffer at pH=8, with 3M GndHCl and 0.05M DTT for 2 hours.
For the treatment with the peptide SEQ ID NO: 412, concentrations of 0.01% (w/w) were used.

Values joined by “and” are separate entries in the source; they are usually repeats but may differ in a detail not shown here. Equal entries are not always repeated.

Regarding “SCCAPVYCCK (listed as Homo sapiens) [SEQ.ID NO:951]”, the “Intensity level (average ± standard deviation), normalized” value in assay [1] is 1 and 1.000 ± 0.000.
Regarding “CEPAICEPSC (listed as Homo sapiens) [SEQ.ID NO:432]”, the “Intensity level (average ± standard deviation), normalized” value in assay [1] was 1 and 1.000 ± 0.000.
On the same count and under the same terms, the figure for “ASCVSLLCRP (listed as Homo sapiens) [SEQ.ID NO:179]” is 0.990±0.014.
On to “GVCGPSPPCI (listed as Homo sapiens) [SEQ.ID NO:5]”, for which the “mechanical resistance of the damaged hair” value in assay [2] was “increase in mechanical resistance”.
Consider “CQCSCCKPYCS (listed as Homo sapiens) [SEQ.ID NO:1131]”, for which the “Intensity level (average ± standard deviation), normalized” value in assay [1] is 1 and 1.000 ± 0.000.
Take “CISSSCCPSCC (listed as Homo sapiens) [SEQ.ID NO:1108]”: the “Intensity level (average ± standard deviation), normalized” value in assay [1] was 1 and 1.000 ± 0.000.
The same measure, in the same setting: the figure for “CLPCLPAASC (listed as Homo sapiens) [SEQ.ID NO:75]” is 1 and 1.000 ± 0.000.
As for “GGVCGPSPPC (listed as Homo sapiens) [SEQ.ID NO:409]”, the Young modulus in assay [3] is on record as 5649±1022 MPa.
With “CGPSPPCITT (listed as Homo sapiens) [SEQ.ID NO:412]”, the “hair stretching (average)” value in assay [4] (relaxed hair after peptide treatment) was 72%. Besides, the “maximum load test, maximum of resistance” value in assay [4] (relaxed hair fiber after peptide treatment) is listed as 126 MPa. In assay [4] (relaxed hair fiber after peptide treatment at 0.01%), the “Young modulus (average)” value was found to be 4190 MPa.
